Test results from US6921810B2, “Bifunctional antibiotics” (The Scripps Research Institute, priority 2000, dated 2005).
Values after ≈ are worked out from the molar mass of the structure shown.

Assays:
[1] = biological target: APH(2″) activity of AAC(6′)-APH(2″) (Staphylococcus aureus, UniProt P0A0C1); assay: Aminoglycoside-modifying enzyme kinetics, APH(2″) activity of the bifunctional enzyme; type: biochemical; settings: for substrate for APH(2″) activity: in words
Description: (§1) They were in fact potent competitive inhibitors of the APH(2″) activity, Kis=0.8 μM for dimer 4, 0.1 μM for 6 and 0.7 μM for 27.
(§2) BF refers to the bifunctional enzyme AAC(6′)-APH(2″), where the particular activity is indicated. The neamine data were obtained from Daigle, D. M.; et al. Chem. Biol. 1999, 6, 99.

[2] = test system: E. coli 16S rRNA A-site (AS-wt); assay: Surface plasmon resonance binding to immobilized biotinylated A-site rRNA; settings: SPR; for Kd: AS-wt; for affinity for AS-wt relative to neamine: compared with neamine
Description: The dissociation constant (Kd) and binding stoichiometry were determined using surface plasmon resonance (SPR) against an immobilized rRNA sequence modeling the A-site of prokaryotic rRNA (FIGS. 1-4) (Hendrix, M.; et al. J. Am. Chem. Soc. 1997, 119, 3641; Wong, C.-H.; et al. Chem. Biol. 1998, 5, 397). […] We focused on neamine as it represents the simplest effective aminoglycoside antibiotic and contains the key β-hydroxyamine motif for interaction with the phosphodiester group and the Hoogsteen face of guanine residues in RNA (FIG. 2) (Hendrix, M.; et al. Angew. Chem., Int. Ed. Engl. 1997, 36, 95). […] Various dimers of neamine were therefore constructed in order to identify a bivalent aminoglycoside that would bind AS-wt with high affinity (FIG. 4), and at the same time resist and/or inhibit the modifying enzymes due to its unnatural structure (Some aminoglycoside dimers were prepared previously; however, the monomers bind the A-site stoichiometrically: see Michael; K.; et al. Bioorg. Med. Chem. 1999, 7, 1361; for vancomycin dimers, see Rao, J.; Whitesides, G. H. J. Am. Chem. Soc. 1997, 119, 10286; Sundram, U. N.; et al. J. Am. Chem. Soc. 1996, 118, 13107).
Reactions were performed under inert atmosphere unless otherwise stated. THF and CH2Cl2 were distilled under Ar with benzophenone ketyl and CaH2, respectively. NMR spectra were obtained on a Bruker AMX-400. The sites of enzymatic modification of neomycin and gentamicin that cause drug resistance are shown in FIG. 1 (Daigle, D. M.; et al. Chem. Biol. 1999, 6, 99). Synthesis of biotinylated RNAs and surface plasmon resonance experiments were performed as previously described and Kd values were also calculated as previously described (FIG. 2) (Hendrix, M.; et al. J. Am. Chem. Soc. 1997, 119, 3641).

AAC(6′)-Ii = AAC(6′)-Ii (Enterococcus faecium, UniProt Q47764); assay: Aminoglycoside-modifying enzyme kinetics, AAC(6′)-Ii; type: biochemical; settings: in words
AAC(6′)-Ii, sequence (Q47764 entry or part of it): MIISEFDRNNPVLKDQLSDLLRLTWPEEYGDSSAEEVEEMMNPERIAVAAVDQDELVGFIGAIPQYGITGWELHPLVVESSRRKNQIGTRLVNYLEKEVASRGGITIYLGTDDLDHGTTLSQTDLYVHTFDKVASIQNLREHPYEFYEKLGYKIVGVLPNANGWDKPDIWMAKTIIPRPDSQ
Description: as §1, §2

APH(3′)-IIIa = APH(3′)-IIIa (Enterococcus faecalis, UniProt P0A3Y5); assay: Aminoglycoside-modifying enzyme kinetics, APH(3′)-IIIa; type: biochemical; settings: in words
APH(3′)-IIIa, sequence (P0A3Y5 whole entry): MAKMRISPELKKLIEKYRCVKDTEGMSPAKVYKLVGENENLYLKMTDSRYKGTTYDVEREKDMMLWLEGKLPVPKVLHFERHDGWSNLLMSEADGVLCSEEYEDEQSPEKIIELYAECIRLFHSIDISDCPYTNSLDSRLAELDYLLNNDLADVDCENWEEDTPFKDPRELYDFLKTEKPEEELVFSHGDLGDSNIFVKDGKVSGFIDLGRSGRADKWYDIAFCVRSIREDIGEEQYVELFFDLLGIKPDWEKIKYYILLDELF
Description: as §1, §2

[3] = biological target: AAC(6′) activity of AAC(6′)-APH(2″) (Staphylococcus aureus, UniProt P0A0C1); assay: Aminoglycoside-modifying enzyme kinetics, AAC(6′) activity of the bifunctional enzyme; type: biochemical; settings: in words
AAC(6′) activity of AAC(6′)-APH(2″), sequence (P0A0C1 whole entry): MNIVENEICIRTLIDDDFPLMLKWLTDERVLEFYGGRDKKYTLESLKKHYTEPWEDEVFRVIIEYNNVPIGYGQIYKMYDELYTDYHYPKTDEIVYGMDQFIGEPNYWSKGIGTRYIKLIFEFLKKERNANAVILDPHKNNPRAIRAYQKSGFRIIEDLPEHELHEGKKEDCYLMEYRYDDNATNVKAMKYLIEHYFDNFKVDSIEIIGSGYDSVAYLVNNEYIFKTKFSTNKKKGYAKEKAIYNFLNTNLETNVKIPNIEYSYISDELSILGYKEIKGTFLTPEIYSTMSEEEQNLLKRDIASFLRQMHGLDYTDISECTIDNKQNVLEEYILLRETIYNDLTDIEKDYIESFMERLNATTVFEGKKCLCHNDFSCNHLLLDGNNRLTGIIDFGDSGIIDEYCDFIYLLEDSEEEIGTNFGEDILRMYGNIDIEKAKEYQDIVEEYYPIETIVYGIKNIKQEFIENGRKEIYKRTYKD
Description: as §1, §2

E. coli ATCC 25922 = assay: Antimicrobial testing (MIC, NCCLS M7-A4); type: cell-based; settings: Escherichia coli, ATCC25922; E. coli reference strain
Description: (§3) Antimicrobial Testing: The Kirby-Bauer Disk assay was performed as previously described (Hendrix, M.; et al. J. Am. Chem. Soc. 1997, 119, 3641; Phillips, I.; Williams, D. In Laboratory Methods in Antimicrobial Chemotherapy; Gerrod, L., Ed.; Churchill Livingstone Press: Edinburg, 1978; pp 3-30). Reference strains E. coli ATCC 25922 and S. aureus ATCC 25923 were obtained as lyophilized pellets (Difco). MIC testing was performed as recommended in the NCCLS Publication M7-A4.

[4] = test system: tobramycin-resistant strain of P. aeruginosa from cystic fibrosis patients; assay: Antibiotic activity against a tobramycin-resistant strain; type: cell-based; settings: compared with tobramycin
S. aureus ATCC 29213 = assay: Antibiotic activity against other strains; type: cell-based; settings: in words
Description: as §3

E. faecalis ATCC 29212 = assay: Antibiotic activity against other strains; type: cell-based; settings: in words
Description: as §3

P. aeruginosa ATCC 27853 = assay: Antibiotic activity against other strains; type: cell-based; settings: in words
Description: as §3

P. aeruginosa, PAO-1 = assay: Antibiotic activity against other strains; type: cell-based; settings: in words
Description: as §3

[5] = test system: S. aureus ATCC 33591-MRSA; assay: Antibiotic activity against other strains; type: cell-based; settings: in words
Description: as §3

[6] = test system: NCC1OC(OC2C(N)CC(N)C(O)C2OCC(=O)NCCCNC(=O)COC2C(O)C(N)CC(N)C2OC2OC(CN)C(O)C(O)C2N)C(N)C(O)C1O; assay: Km as substrate for the AAC(6′) acetyltransferase activity of the bifunctional enzyme AAC(6′)-APH(2″) (BF); type: biochemical; settings: other: acetyltransferase activity of the bifunctional enzyme (BF)
Description: as §1, §2

[7] = test system: NCC1OC(OC2C(N)CC(N)C(O)C2OCC(=O)NCCCCCNC(=O)COC2C(O)C(N)CC(N)C2OC2OC(CN)C(O)C(O)C2N)C(N)C(O)C1O; assay: as above; type: biochemical; settings: other: acetyltransferase activity of the bifunctional enzyme (BF)
Description: as §1, §2

[8] = test system: CN(CCCCN(C)CC(O)COC1C(O)C(N)CC(N)C1OC1OC(CN)C(O)C(O)C1N)CC(O)COC1C(O)C(N)CC(N)C1OC1OC(CN)C(O)C(O)C1N; assay: as above; type: biochemical; settings: other: acetyltransferase activity of the bifunctional enzyme (BF)
Description: as §1, §2

[9] = test system: NCC1OC(OC2C(N)CC(N)C(O)C2OCC(=O)NCCCNC(=O)COC2C(O)C(N)CC(N)C2OC2OC(CN)C(O)C(O)C2N)C(N)C(O)C1O; assay: Km as substrate for AAC(6′)-Ii (6′-N-acetylation); type: biochemical; settings: other: 6′-N-acetylation
Description: as §1, §2

[10] = test system: NCC1OC(OC2C(N)CC(N)C(O)C2OCC(=O)NCCCCCNC(=O)COC2C(O)C(N)CC(N)C2OC2OC(CN)C(O)C(O)C2N)C(N)C(O)C1O; assay: Km as substrate for AAC(6′)-Ii (6′-N-acetylation); type: biochemical; settings: other: 6′-N-acetylation
Description: as §1, §2

[11] = test system: CN(CCCCN(C)CC(O)COC1C(O)C(N)CC(N)C1OC1OC(CN)C(O)C(O)C1N)CC(O)COC1C(O)C(N)CC(N)C1OC1OC(CN)C(O)C(O)C1N; assay: Km as substrate for AAC(6′)-Ii (6′-N-acetylation); type: biochemical; settings: other: 6′-N-acetylation
Description: as §1, §2

[12] = test system: NCC1OC(OC2C(N)CC(N)C(O)C2OCC(=O)NCCCNC(=O)COC2C(O)C(N)CC(N)C2OC2OC(CN)C(O)C(O)C2N)C(N)C(O)C1O; assay: Km as substrate for APH(3′)-IIIa (3′-O-phosphorylation); type: biochemical; settings: other: 3′-O-phosphorylation
Description: as §1, §2

[13] = test system: NCC1OC(OC2C(N)CC(N)C(O)C2OCC(=O)NCCCCCNC(=O)COC2C(O)C(N)CC(N)C2OC2OC(CN)C(O)C(O)C2N)C(N)C(O)C1O; assay: as above; type: biochemical; settings: other: 3′-O-phosphorylation
Description: as §1, §2

[14] = test system: CN(CCCCN(C)CC(O)COC1C(O)C(N)CC(N)C1OC1OC(CN)C(O)C(O)C1N)CC(O)COC1C(O)C(N)CC(N)C1OC1OC(CN)C(O)C(O)C1N; assay: as above; type: biochemical; settings: other: 3′-O-phosphorylation
Description: as §1, §2

APH(2″) activity of AAC(6′)-APH(2″), sequence (P0A0C1 whole entry): as above

Row | Molecule | Ki [1] | substrate for APH(2″) activity [1] | Kd ([2]; for neamine per binding site) | substrate for AAC(6′)-Ii (AAC(6′)-Ii) | substrate for APH(3′)-IIIa (APH(3′)-IIIa) | substrate for AAC(6′) activity of bifunctional enzyme [3] | MIC (E. coli ATCC 25922) | other results
1 | NCC1OC(OC2C(N)CC(N)C(O)C2OCC(=O)NCCCNC(=O)COC2C(O)C(N)CC(N)C2OC2OC(CN)C(O)C(O)C2N)C(N)C(O)C1O (stereo not drawn) [Dimer 4, N,N′-1,3-bis(5-Ethylcarboxyl-neamine)propylamide] | 800 nM | not substrates | 1100 nM | poor substrates | poor substrates | poor substrates | 31 µM (≈ 24.8 µg/mL) | affinity for AS-wt relative to neamine [2]: ten-fold greater than neamine
2 | NCC1OC(OC2C(N)CC(N)C(O)C2OCC(=O)NCCCCCNC(=O)COC2C(O)C(N)CC(N)C2OC2OC(CN)C(O)C(O)C2N)C(N)C(O)C1O (stereo not drawn) [Dimer 6, N,N′-1,3-bis(5-Ethylcarboxyl-neamine)pentylamide] | 100 nM | not substrates | 800 nM | poor substrates | poor substrates | poor substrates | 125 µM (≈ 103 µg/mL) | affinity for AS-wt relative to neamine [2]: ten-fold greater than neamine
3 | CN(CCCCN(C)CC(O)COC1C(O)C(N)CC(N)C1OC1OC(CN)C(O)C(O)C1N)CC(O)COC1C(O)C(N)CC(N)C1OC1OC(CN)C(O)C(O)C1N (stereo not drawn) [Dimer 27] | 700 nM | not substrates | – | poor substrates | poor substrates | poor substrates | 6.25 µM (≈ 5.46 µg/mL) | effectiveness relative to tobramycin [4]: 3 times; Kd [2]: 40 nM; antibiotic activity (S. aureus ATCC 29213): effective; antibiotic activity (E. faecalis ATCC 29212): effective; antibiotic activity (P. aeruginosa ATCC 27853): effective; antibiotic activity (P. aeruginosa, PAO-1): effective; antibiotic activity [5]: effective
4 | NC[C@H]1O[C@H](O[C@H]2[C@H](O)[C@@H](O)[C@H](N)C[C@@H]2N)[C@H](N)[C@@H](O)[C@@H]1O [neamine, reference compound] | – | – | 10000 nM | – | – | – | – | –
5 | AAC(6′) activity of the bifunctional aminoglycoside modifying-enzyme AAC(6′)-APH(2″) (Staphylococcus aureus) | – | – | – | – | – | – | – | Km [6]: 0.84 µM; Km [7]: 4.22 µM; Km [8]: 0.53 µM
6 | AAC(6′)-Ii (Enterococcus faecium) | – | – | – | – | – | – | – | Km [9]: 53.4 µM; Km [10]: 83.6 µM; Km [11]: 28.7 µM
7 | APH(3′)-IIIa (Enterococcus faecalis) | – | – | – | – | – | – | – | Km [12]: 0.82 µM; Km [13]: 2.66 µM; Km [14]: 1.1 µM
